Assays:
[1] = in vivo
Text: One or more embodiments of the invention comprise systems and method for delivering relatively high concentrations of medicament without undue precipitation of the medicament in the delivery system. The on-vent adapter with the pattern of aerosol generation is designed to allow up to 90% of aerosol enter the artificial airway and allow 45-80% of dose to reach aerosol to the lungs. Hand Held adapter delivers inhaled mass of 75-90% with 40-55% of dose reaching the lungs as aerosol (based on AMIK phase II Scintigraphy.) Initially in vitro testing was showing precipitation of Vancomycin in powder form on the inspiratory filter.

[2] = tested on: Gram-positive, pneumonia-causing bacteria; assay: Reference MIC in tracheal aspirates (TA); assay type: cell-based, Staph species; settings: locally in TA
Experimental: The dose-response to aerosolized vancomycin, administered in accordance with one or more embodiments of devices, apparatus and/or methods of the present invention was evaluated, as was the ability to deliver a predefined target multiple of an MIC for Gram-positive bacteria causing pneumonia, including, Staph species, in the tracheal aspirates (TA). […] Thus the desired multiple is 128 μg/mL.

gram-positive bacteria = settings: P<=0.05, cited from earlier work
[3] = parenterally administered; cited from earlier work
[4] = tested on: vancomycin susceptable S. aureas; settings: estimated; cited from earlier work
[5] = tested on: vancomycin intermediate S. aureas; settings: estimated; cited from earlier work
[6] = tested on: vancomycin resistant S. aureas; settings: estimated; printed with "or more"; cited from earlier work
S. aureus = settings: lowered by CLSI; cited from earlier work
[7] = aerosolized versus systemic vancomycin, n=10, high suspicion for MRSA respiratory infection; cited from earlier work

| SMILES | dose reaching the lungs as aerosol [1] | inhaled mass [1] | reference MIC value [2] | CDC-NNIS diagnostic criteria for ventilator-associated pneumonia (VAP) (gram-positive bacteria; aerosolized vancomycin (n=14) and/or gentamicin-sulfate, placebo 75.0% to 78.6%) | WBC at Day 14 (gram-positive bacteria; versus placebo) | bacterial resistance (gram-positive bacteria; versus placebo) | clinical pulmonary infection score CPIS (gram-positive bacteria; versus placebo) | use of systemic antibiotics (gram-positive bacteria; versus placebo) | ventilator weaning (gram-positive bacteria; versus placebo) | levels in lung epithelial lining fluid as share of those seen in serum [3] | reference MIC [4] | reference MIC [5] | reference MIC [6] | vancomycin breakpoint (S. aureus) | sputum vancomycin concentrations [7] |
| --- | --- | --- | --- | --- | --- | --- | --- | --- | --- | --- | --- | --- | --- | --- | --- |
| NCC[C@H](O)C(=O)N[C@@H]1C[C@H](N)[C@@H](O[C@H]2O[C@H](CN)[C@@H](O)[C@H](O)[C@H]2O)[C@H](O)[C@H]1O[C@H]1O[C@H](CO)[C@@H](O)[C@H](N)[C@H]1O [AMIK] | 40-55% | 75-90% | – | – | – | – | – | – | – | – | – | – | – | – | – |
| CN[C@H](CC(C)C)C(=O)N[C@H]1C(=O)N[C@@H](CC(N)=O)C(=O)N[C@H]2C(=O)N[C@H]3C(=O)N[C@H](C(=O)N[C@H](C(=O)O)c4cc(O)cc(O)c4-c4cc3ccc4O)[C@H](O)c3ccc(c(Cl)c3)Oc3cc2cc(c3O[C@@H]2O[C@H](CO)[C@@H](O)[C@H](O)[C@H]2O[C@H]2C[C@](C)(N)[C@H](O)[C@H](C)O2)Oc2ccc(cc2Cl)[C@H]1O [vancomycin] | – | – | 32 µg/mL | 35.7% to 73.6% | lower | reduced | reduced | reduced | increased | ~14% | 2 to 4 µg/mL | 8 to 16 µg/mL | 16 to 32 µg/mL | 2 µg/mL | significantly increases |

Source: patent US20100282247A1, “TREATMENT OF PULMONARY DISORDERS WITH AEROSOLIZED MEDICAMENTS SUCH AS VANCOMYCIN” (Novartis AG, priority 2007, published 2010)
